For data set [1], the system named is scn1Lab mutant zebrafish. The format is in vivo, Danio rerio (zebrafish). The settings on record: for forebrain electrographic seizure activity after the locomotion assay: 100 μM.
The subject of data set [2] is scn1Lab mutant zebrafish. The class given is in vivo, Danio rerio (zebrafish). Particulars: for swim activity / seizure behavior, third trial: 100 μM; for inhibition of spontaneous seizure behavior, initial screen: 667 μM.
Data set [3] concerns MES-induced seizure model. The data set is described as follows: MES-induced seizure model. The format is in vivo, mice. Particulars: for ED50, MES: mice IP, 0.5 hrs.
The test system of a further data set is scMET model. Briefly: scMET model. The format is in vivo, mice. The settings on record: for N/F (animals protected over tested): IP quantification, 0.5 h.
The test system of a further data set is 6 Hz (32 mA) model. The data set is described as follows: 6 Hz (32 mA) model. The class given is in vivo, mice. The settings on record: identification screen IP. The method, then:
ASP469016 was tested in our initial T31 (MES/scMET/Tox) screen at 30, 100, and 300 mg/kg. The data for each condition is presented as N/F, where N equals the number of animals protected and F equals the number of animals tested. For tests of toxicity (TOX), N equals the number of animals displaying toxic effects and F equals the number of animals tested. Codes in the C column refer to comments from the technicians performing the experiment and are defined in the comments section if necessary. Any deaths are noted. As shown in the 6 Hz (32 mA) model only 1/4 animals were protected at 100 mg/kg at 30 min. In the MES-induced seizure model only 1/4 animals were protected at 100 and 300 mg/kg at 30 min. No toxicity (unable to grasp rotorod) or activity was detected at any other dose or time point tested.

Another data set relates to mice. The settings on record: mouse, in vivo.
The test system of data set [4] is WT zebrafish exposed to 15 mM pentylenetetrazole. The data set is described as follows: PTZ-induced seizure behavior, locomotion assay. The class given is in vivo. Particulars: 100 μM, n=10.
The subject of a further data set is wild-type larvae. The data set is described as follows: DMSO toxicity in larvae. Particulars: dilutions between 0.01 and 100%; n=12 fish per concentration.
Setting [5] is: 1 mM (KD: 48 hr exposure), 5 dpf.

The structures appear in SMILES notation. Where a name gives a salt, the structure may show the parent alone. Read-outs that look alike come from different tables or passages of the source.

For `[Br-].[K+]` [potassium bromide], in the data set with scn1Lab mutant zebrafish [1] (zebrafish, in vivo), the “Epileptiform event frequency (burst frequency; interictal- and ictal-like discharges)” value (“Epileptiform event frequency” below) is “reduced”; the “fractional time spent seizing” value is “reduced”. The “effect on locomotor seizure behavior” value in the data set with scn1Lab mutant zebrafish [2] (zebrafish, in vivo) is “effectively inhibited seizure behavior”.
As for `Clc1ccc(Cn2c(CN3CCCC3)nc3ccccc32)cc1` [ASP469016], in data set [3] (300 mg/kg starting dose), the “activity during determination of the TPE in the MES model” value is reported as “no activity”. Besides, in data set [3] (100 and 300 mg/kg doses), the “activity in the qualitative MES screen” value is listed as “some activity”. Moreover, the “N/F (animals protected over tested)” value in data set [3] (IP quantification, 350 mg/kg, 0.5 h) was 0/8; in data set [3] (IP quantification, 400 mg/kg, 0.5 h) it was 7/8; in data set [3] (IP quantification, 500 mg/kg, 0.5 h), 4/4; in data set [3] (identification screen IP, 30 mg/kg, 0.5 h), 0/4; in data set [3] (identification screen IP, 30 mg/kg, 2.0 h), 0/4; in data set [3] (identification screen IP, 100 mg/kg, 0.5 h), 1/4. The “N/F (animals protected over tested)” value in data set [3] (identification screen IP, 100 mg/kg, 2.0 h) is reported as 0/4; in data set [3] (identification screen IP, 300 mg/kg, 0.5 h) it was 1/4; in data set [3] (identification screen IP, 300 mg/kg, 2.0 h), 0/4; in data set [3] (time to peak effect, 300 mg/kg, 0.25 h) it was 0/4; in data set [3] (time to peak effect, 300 mg/kg, 0.5 h), 0/4; in data set [3] (time to peak effect, 300 mg/kg, 1.0 h) it was 0/4. The “N/F (animals protected over tested)” value in data set [3] (time to peak effect, 300 mg/kg, 2.0 h) is recorded as 0/4; in data set [3] (time to peak effect, 300 mg/kg, 4.0 h), 0/4; in data set [3] (time to peak effect, 500 mg/kg, 0.25 h), 2/4; in data set [3] (time to peak effect, 500 mg/kg, 1.0 h), 0/4; in data set [3] (time to peak effect, 500 mg/kg, 2.0 h) it was 0/4; in data set [3] (time to peak effect, 500 mg/kg, 4.0 h), 0/4. The “N/F (animals protected over tested)” value with scMET model (200 mg/kg) was 0/8; in the data set with scMET model (250 mg/kg) it was 0/4; with 6 Hz (32 mA) model (30 mg/kg, 0.5 h) it was 0/4; in the data set with 6 Hz (32 mA) model (30 mg/kg, 2.0 h) it was 0/4; in the data set with 6 Hz (32 mA) model (100 mg/kg, 0.5 h) it was 1/4; in the data set with 6 Hz (32 mA) model (100 mg/kg, 2.0 h) it was 0/4. The “N/F (animals protected over tested)” value in the data set on 6 Hz (32 mA) model (300 mg/kg, 0.5 h) is 0/4; in the data set on 6 Hz (32 mA) model (300 mg/kg, 2.0 h), 0/4. Moreover, the “ED50, MES” value in data set [3] is below 400 mg/kg; in data set [3] (listed as 469016), below 400.0 mg/kg. Besides, the “ED50, SCMET” value with scMET model (mice IP, 0.5 hrs) was above 250.0 mg/kg. Besides, in the data set with scMET model (quantitative testing), the “activity in the scMET model” value is “No activity”. Besides, in the data set on mice, the “activity or toxicity (unable to grasp rotorod)” value is on record as “No activity or toxicity”. For the same compound, the “N/F (animals toxic over tested)” value in the data set with mice (400 mg/kg) is given as 0/8; in the data set on mice (500 mg/kg), 0/4; in the data set with mice (ip, 30 mg/kg), 0/8; in the data set with mice (ip, 100 mg/kg), 0/8; in the data set with mice (ip, 300 mg/kg) it was 0/8; in the data set with mice (ip, 500 mg/kg), 0/4. For the same compound, in the data set on mice (ip), the “ED50, TOX” value is recorded as above 500 mg/kg.
Regarding `Clc1ccc(Cn2c(CN3CCCC3)nc3ccccc32)cc1` [clemizole], the “forebrain electrographic seizure activity after the locomotion assay” value in the data set on scn1Lab mutant zebrafish [1] is reported as “effective in suppressing spontaneous seizure activity”. In addition, in the data set on scn1Lab mutant zebrafish [1] (n=7), the burst duration was 154 ± 127 ms, the burst frequency worked out at 0.2±0.01 bursts/min and the “fractional time spent seizing” value worked out at 0.03±0.02%. In addition, the “swim activity / seizure behavior, third trial” value in the data set with scn1Lab mutant zebrafish [2] is “effective in suppressing spontaneous seizure activity”. Besides, the “seizure behavior in the locomotion assay” value in the data set on scn1Lab mutant zebrafish [2] (n=33) is “no significant effect”. Besides, the “seizure-induced swim activity and mean velocity, re-test” value in the data set with scn1Lab mutant zebrafish [2] (zebrafish, in vivo) is “effective in reducing seizure-induced swim activity and mean velocity”. Moreover, in data set [4], the PTZ-induced seizure behavior result is on record as “effective in reducing seizure behavior”.
As to `CC[C@@H](C(N)=O)N1CCCC1=O` [levetiracetam], the “effect on locomotor seizure behavior” value with scn1Lab mutant zebrafish [2] (zebrafish, in vivo) is recorded as “no effect”.
As to `NC(=O)N1c2ccccc2C=Cc2ccccc21` [carbamazepine], in the data set with scn1Lab mutant zebrafish [1] (zebrafish, in vivo), the “Epileptiform event frequency” value is listed as “increased burst frequency”; the “fish in which epileptiform activity became more frequent” value (from here on “fish”) was 2 of 7.
Take `C#CCN(C)CCCOc1ccc(Cl)cc1Cl` [clorgiline HCl]: in the data set on scn1Lab mutant zebrafish [1], the “forebrain electrographic seizure activity after the locomotion assay” value is given as “electrographic seizure events were still observed”. Moreover, the “swim activity / seizure behavior, third trial” value in the data set on scn1Lab mutant zebrafish [2] is listed as “reduced swim activity”. Further, in the data set with scn1Lab mutant zebrafish [2] (zebrafish, in vivo), the “seizure-induced swim activity and mean velocity, re-test” value is “effective in reducing seizure-induced swim activity and mean velocity”.
On to `CC(C)CCCC(C)NC(C)C` (centres unmarked) [iproheptine], for which the “convulsive behavior (H1 antihistamines)” value with scn1Lab mutant zebrafish [2] (locomotor seizure assay, 5 dpf) is “failed to suppress convulsive behavior”.
Take `Nc1nnc(-c2cccc(Cl)c2Cl)c(N)n1` [lamotrigine]: the “effect on locomotor seizure behavior” value with scn1Lab mutant zebrafish [2] (zebrafish, in vivo) is “no effect”.
On to `CC(=O)[C@H]1CC[C@H]2[C@@H]3CC[C@H]4C[C@](C)(O)CC[C@]4(C)[C@H]3CC[C@]12C` [ganaxolone], for which the “effect on locomotor seizure behavior” value in the data set on scn1Lab mutant zebrafish [2] (setting [5]) was “effective”.
For `CC(=O)Nc1nnc(S(N)(=O)=O)s1` [Acetazolamide], in the data set with scn1Lab mutant zebrafish [2] (zebrafish, in vivo), the “effect on locomotor seizure behavior” value was “increased seizure behavior”.
`Cc1ccc(C(=O)C(C)CN2CCCCC2)cc1` (centres unmarked) [tolperisone HCl]: the “forebrain electrographic seizure activity after the locomotion assay” value with scn1Lab mutant zebrafish [1] is “electrographic seizure events were still observed”. The “swim activity / seizure behavior, third trial” value in the data set with scn1Lab mutant zebrafish [2] is “reduced swim activity”. Further, in the data set on scn1Lab mutant zebrafish [2] (zebrafish, in vivo), the “seizure-induced swim activity and mean velocity, re-test” value is “effective in reducing seizure-induced swim activity and mean velocity”.
`NCC(O)CC(=O)O` (centres unmarked) [aminohydroxybutyric acid]: in the data set with scn1Lab mutant zebrafish [2] (5 dpf, 6-12 fish), the “inhibition of spontaneous seizure behavior, initial screen” value (“inhibition” for short) is recorded as “ineffective”.
As to `CN1C(=O)CN=C(c2ccccc2)c2cc(Cl)ccc21` [diazepam], the “fractional time spent seizing” value with scn1Lab mutant zebrafish [1] (1 mM bath applied, 5-6 dpf, vs baseline) is recorded as “reduced”. Also, in the data set on scn1Lab mutant zebrafish [1] (1 mM bath applied, agar-embedded mutants 5-6 dpf, vs baseline, 7 fish per drug), the “Epileptiform event frequency” value is reported as “reduced”. Further, in the data set with scn1Lab mutant zebrafish [2] (setting [5]), the “effect on locomotor seizure behavior” value is given as “effectively inhibited seizure behavior”.
Take `C=CC(N)CCC(=O)O` (centres unmarked) [vigabatrin]: in the data set on scn1Lab mutant zebrafish [1] (zebrafish, in vivo), the “Epileptiform event frequency” value is “increased burst frequency”; the “fish” value is 6 of 7.
For `CC(C)(C)C(O)/C=C/c1ccc2c(c1)OCO2` (centres unmarked) [stiripentol], in the data set on scn1Lab mutant zebrafish [1] (zebrafish, in vivo), the “Epileptiform event frequency” value was “reduced”; the “fractional time spent seizing” value is “reduced”. For the same compound, the “effect on locomotor seizure behavior” value in the data set with scn1Lab mutant zebrafish [2] (zebrafish, in vivo) is reported as “effectively inhibited seizure behavior”.
For `CN1CCc2c(c3ccccc3n2Cc2ccccc2)C1.CN1CCc2c(c3ccccc3n2Cc2ccccc2)C1.O=S(=O)(O)c1cccc2c(S(=O)(=O)O)cccc12` [mebhydrolin napthalenesulfonate], the “convulsive behavior (H1 antihistamines)” value with scn1Lab mutant zebrafish [2] (zebrafish, in vivo) is “failed to suppress convulsive behavior”.
The same measure, in the same setting: to `CN1CCC(=C2c3ccccc3Sc3ccccc32)CC1` [pimethixene maleate] belongs “failed to suppress convulsive behavior”.
For the compound `CCNC1(c2cccs2)CCCCC1=O` (centres unmarked) [tiletamine], in the data set with scn1Lab mutant zebrafish [2] (5 dpf, 6-12 fish), the “inhibition” value was “ineffective”.
For the compound `C[S+](C)[O-]` [DMSO], in the data set with wild-type larvae, the “lethal DMSO dilution” value was above 25%.
Consider `O=C(CCCl)NCc1ccccc1` [beclamide], for which the “inhibition” value in the data set with scn1Lab mutant zebrafish [2] is recorded as “ineffective”.
As for `CCC1(C)CC(=O)NC1=O` (centres unmarked) [ethosuximide], the “fish” value in the data set with scn1Lab mutant zebrafish [1] (zebrafish, in vivo) is 4 of 7. For the same compound, the “effect on locomotor seizure behavior” value with scn1Lab mutant zebrafish [2] (zebrafish, in vivo) is “increased seizure behavior”.

The values are drawn from patent US10695325B2, “Compounds and methods for treating an epileptic disorder” (priority 2013, dated 2020).
